Patent US20180371408A1, “CELL CULTURES AND METHODS OF USE” (priority 2017, published 2018)
Values joined by “and” are separate entries in the source; they are usually repeats but may differ in a detail not shown here. Equal values may be shown once. Read-outs that look alike come from different tables or passages of the source.

Key:
[1] = system: Spermatogonial cells (C18-4); experiment: cells; assay type: cell-based, mouse
Leydig cells (TM3) = experiment: cells; assay type: cell-based, mouse
[2] = system: testicular co-culture: spermatogonial cells (C18-4), Sertoli cells (TM4), Leydig cells (TM3); conditions: for concentration with statistically significant decrease in viability (p<0.05): 48 h exposure
reproductive system [3] = conditions: cited from earlier work
[4] = system: testicular co-culture: spermatogonial cells (C18-4), Sertoli cells (TM4), Leydig cells (TM3); experiment: cells; conditions: Mus musculus
Sertoli cells (TM4) = experiment: cells; assay type: cell-based, mouse
reproductive system [5] = conditions: cited from earlier work; remark: listed apart in the source
[6] = system: testicular co-culture (spermatogonial, Sertoli, Leydig cells); experiment: Multi-parametric high-content assay of the co-culture treated with cadmium; assay type: cell-based, mouse; conditions: 0.05, 0.25, 0.50 and 1.0 μM for 48 h
Description: All cultures were viewed with an Olympus inverted microscope equipped with phase-contrast optics (Olympus, Tokyo, Japan) at intervals during the culture to assess their general appearance. Images were captured and digitized with a Nikon Camera. To further examine the morphology of the cultured cells, a multi-parametric high-content analysis (HCA) was applied to quantify the F-actin cytoskeleton, nuclear shape, and cell proliferation. The spermatogonial cells were identified using typical markers of mouse germ cell nuclear antigen (GCNA1) (Developmental Studies Hybridoma Bank, http://dshb.biology.uiowa.edu, Iowa, IA)(Enders and May, 1994). Leydig cells were identified using steroidogenic acute regulatory protein (StAR)(Clark et al., 1994) (kindly gifted by Dr. Douglas M. Stocco, Texas Tech University). Sertoli cells were stained with SOX9 (Developmental Studies Hybridoma Bank, Iowa, IA). After culture for 48 and 72 h, cells were washed with phosphate buffered saline (PBS), fixed with 4% formaldehyde for 20 min at room temperature, and then washed with PBS three times. […] The multichannel images were automatically captured using an Arrayscan VTI HCS reader with a Studio 2.0 Target Activation BioApplication module (Thermo Scientific, MA). […]
Single-cell based High-content Analysis (HCA) provided multi-parameter phenotypic profiling characterization, including number, nuclear area, shape, and intensity, as previously reported (Liang et al., 2017). […] With 36 fields of each well, at least 4000 cells were analyzed per well, and single-cell based data for each channel were exported for further statistical analysis. […]
For quantitative analysis of three-dimensional F-actin cytoskeleton, we applied the Cytoskeletal Re-arrangement Assay in the Morphology Explorer Bioapplication (ThermoScientific, MA) to determine the number, dimensions and alignment—as well as the texture—of actin fibers based on the manufacturer's guideline (ThermoFisher, 2010). […]

[7] = Spermatogonial Cell, 48 h, highest concentration tested assigned as IC50 where viability did not decrease 50%, read-out: IC50
[8] = Leydig Cell, 48 h, highest concentration tested assigned as IC50 where viability did not decrease 50%, read-out: IC50
[9] = Co-culture, 24 h, highest concentration tested assigned as IC50 where viability did not decrease 50%
[10] = Co-culture, 48 h, highest concentration tested assigned as IC50 where viability did not decrease 50%
[11] = co-culture, 48 h treatment, FIG. 6
[12] = Mus musculus, 24 h, read-out: IC50
[13] = Mus musculus, 48 h, read-out: IC50
[14] = Mus musculus, Leydig, 24 h, read-out: IC50
[15] = Mus musculus, Leydig, 48 h, read-out: IC50
[16] = based on ToxCast database and literature search
[17] = Spermatogonial Cell, 24 h, highest concentration tested assigned as IC50 where viability did not decrease 50%, read-out: IC50
[18] = Sertoli Cell, 24 h, highest concentration tested assigned as IC50 where viability did not decrease 50%, read-out: IC50
[19] = Sertoli Cell, 48 h, highest concentration tested assigned as IC50 where viability did not decrease 50%, read-out: IC50
[20] = Leydig Cell, 24 h, highest concentration tested assigned as IC50 where viability did not decrease 50%, read-out: IC50

| Compound | effect on cell viability (NR uptake), in words [2, 11] | IC50 [1, 12] [µM] | IC50 [1, 13] [µM] | IC50 ([4]; 24 h) [µM] | IC50 ([4]; 48 h) [µM] | IC50 (Sertoli cells (TM4); [12]) [µM] | IC50 (Sertoli cells (TM4); [13]) [µM] | IC50 (Leydig cells (TM3); [14]) [µM] | IC50 (Leydig cells (TM3); [15]) [µM] | In vivo Reproductive Toxicity (reproductive system [3]; [16]) | further results |
| --- | --- | --- | --- | --- | --- | --- | --- | --- | --- | --- | --- |
| CCCCCOC(=O)c1ccccc1C(=O)OCCCCC [DPP] | dose-dependent decrease of cell viability |  |  |  |  |  |  |  |  |  | IC50 [1, 7]: 372 µM; IC50 (Leydig cells (TM3); [8]): 244 µM; IC50 [2, 9]: 550 µM; IC50 [2, 10]: 352 µM |
| COC(=O)c1ccccc1C(=O)OC [DMP] | no or slight decrease of cell viability |  |  |  |  |  |  |  |  |  | developmental toxicity of phthalates (literature) (reproductive system [3]; in vivo): developmental non-toxic |
| CCCCOC(=O)c1ccccc1C(=O)OCCCC [DBP, Dibutyl phthalate] | dose-dependent decrease of cell viability | ≥ 400 | 371 | 437 | 388 | ≥ 400 | ≥ 400 | ≥ 400 | ≥ 400 | + | concentration with statistically significant decrease in viability (p<0.05) ([2]; co-culture, FIG. 6): 200 µM |
| Oc1cc(Cl)ccc1Oc1ccc(Cl)cc1Cl [TCS] | significant dose-dependent decrease of cell viability |  |  |  |  |  |  |  |  |  | IC50 [1, 17]: 62.7 µM; IC50 [1, 7]: 57.3 µM; IC50 (Sertoli cells (TM4); [18]): 81 µM; IC50 (Sertoli cells (TM4); [19]): 72.7 µM; IC50 (Leydig cells (TM3); [20]): 135 µM; IC50 (Leydig cells (TM3); [8]): 80 µM; IC50 [2, 9]: 121 µM; IC50 [2, 10]: 76.5 µM |
| TCEP | statistically significant decreases in cell viability |  |  |  |  |  |  |  |  |  | IC50 [1, 17]: 5110 µM; IC50 [1, 7]: 3680 µM |
| CCOP(=S)(OCC)Oc1nc(Cl)c(Cl)cc1Cl [CHL, chlorpyrifos] | significant dose-dependent decrease of cell viability | 118 | 96 | 91.5 | 89 | 212 | 120 | 142 | 120 | + | IC50 ([4]; read-out: IC50 values (mostly)): ≤ 100 µM |
| Sodium arsenite [As] |  |  |  |  |  |  |  |  |  |  | IC50 ([1]; read-out: IC50): 6.9 µM and 6.8 µM; reproductive LOAEL (reproductive system [5]; rat, in vivo): 8 mg/kg/day; IC50 (Sertoli cells (TM4); read-out: IC50): 12 µM and 6.9 µM; IC50 (Leydig cells (TM3); read-out: IC50): 20.3 µM and 16.1 µM; IC50 [2]: 15 µM and 10 µM; effect on cell viability (NR uptake), in words [2]: most toxic; In vivo Reproductive Toxicity (reproductive system [3]; in vivo): + |
| O=P1(N(CCCl)CCCl)NCCCO1 (stereo not drawn) [CYC, Cyclophosphamide] |  |  |  | > 5000 | > 5000 |  |  |  |  |  | IC50 ([1]; Mus musculus, 24 h): > 5000 µM; IC50 ([1]; Mus musculus, 48 h): > 5000 µM; IC50 (Sertoli cells (TM4); Mus musculus, 24 h): > 5000 µM; IC50 (Sertoli cells (TM4); Mus musculus, 48 h): > 5000 µM; IC50 (Leydig cells (TM3); Mus musculus, Leydig, 24 h): > 5000 µM; IC50 (Leydig cells (TM3); Mus musculus, Leydig, 48 h): > 5000 µM; effect on cell viability (NR uptake), in words [2]: did not cause a significant decrease in cell viability; in vitro call as reproductive toxicant [2]: negative; In vivo Reproductive Toxicity (reproductive system [3]; in vivo): +; call in in vivo models (reproductive system [3]; in vivo): positive |
| NC(=O)NO [HU] | statistically significant decreases in cell viability |  |  |  |  |  |  |  |  |  | IC50 [1, 7]: 300 µM; IC50 (Sertoli cells (TM4); [18]): 396 µM; IC50 (Sertoli cells (TM4); [19]): 150 µM; IC50 (Leydig cells (TM3); [20]): 600 µM; IC50 (Leydig cells (TM3); [8]): 200 µM; IC50 [2, 10]: 200 µM |
| CCCC(CCC)C(=O)[O-].[Na+] [VPA, Valproic acid sodium salt] | statistically significant decreases in cell viability | > 20000 | 6000 | > 20000 | 8850 | > 20000 | 7610 | > 20000 | 9480 | + |  |
| O=C1NS(=O)(=O)c2ccccc21 [SAC] | did not cause a significant decrease in cell viability |  |  |  |  |  |  |  |  |  |  |
| O=C(c1ccc2c(c1)C(=O)OC2=O)c1ccc2c(c1)C(=O)OC2=O [BEN, Benzophenone-3,3′,4,4′-tetracarboxylic dianhydride] | significant dose-dependent decrease of cell viability |  |  |  |  |  |  |  |  | + |  |
| C[C@H]1CCCC(=O)CCC/C=C/c2cc(O)cc(O)c2C(=O)O1 [ZEA, Zearalenone] |  | 3.8 | 2 | 7.2 | 4.1 | 3.1 | 2.5 | 3.4 | 2.5 | + | IC50 ([4]; read-out: IC50 values (mostly)): ≤ 100 µM; reproductive LOAEL (reproductive system [5]; in rats): 1 mg/kg/day |
| OB(O)O [BA, Boric acid] |  |  |  | > 5000 | > 5000 |  |  |  |  |  | IC50 ([1]; Mus musculus, 24 h): > 5000 µM; IC50 ([1]; Mus musculus, 48 h): 3580 µM; IC50 (Sertoli cells (TM4); Mus musculus, 24 h): > 5000 µM; IC50 (Sertoli cells (TM4); Mus musculus, 48 h): > 5000 µM; IC50 (Leydig cells (TM3); Mus musculus, Leydig, 24 h): > 5000 µM; IC50 (Leydig cells (TM3); Mus musculus, Leydig, 48 h): > 5000 µM; effect on cell viability (NR uptake), in words [2]: statistically significant decreases in cell viability; in vitro call as reproductive toxicant [2]: negative; In vivo Reproductive Toxicity (reproductive system [3]; in vivo): +; call in in vivo models (reproductive system [3]; in vivo): positive |
| CCOC(=O)c1ccccc1C(=O)OCC [DEP, Diethylphthalate] | no or slight decrease of cell viability | > 400 | > 400 | > 400 | > 400 | > 400 | > 400 | > 400 | > 400 | − | developmental toxicity of phthalates (literature) (reproductive system [3]; in vivo): developmental non-toxic |
| [Cl][Cd][Cl] [Cd, Cadmium chloride] | most toxic |  |  |  |  |  |  |  |  | + | IC50 [1, 17]: 2.1 µM; IC50 [1, 7]: 2.1 µM; reproductive LOAEL (reproductive system [5]; in rats): 0.088 mg/kg/day; IC50 (Sertoli cells (TM4); [18]): 14.6 µM; IC50 (Sertoli cells (TM4); [19]): 9.5 µM; IC50 (Leydig cells (TM3); [20]): 16 µM; IC50 (Leydig cells (TM3); [8]): 8.5 µM; F-actin cytoskeletal structure [6]: destruction of cytoskeletal structure; cell proliferation (cell number) [6]: decrease of cell proliferation (cell number); γH2AX foci formation ([6]; dose-dependent): significantly induced phosphorylation of γH2AX foci formation; IC50 [2, 9]: 11.3 µM; IC50 [2, 10]: 4.2 µM |
| CC/C(=C(/CC)c1ccc(O)cc1)c1ccc(O)cc1 [DES, Diethylstilbestrol] |  |  |  |  |  |  |  |  |  | + | reproductive LOAEL (reproductive system [5]; in rats): 10 mg/kg/day |
| CCCCOC(=O)c1ccccc1C(=O)OCc1ccccc1 [BBP, Benzyl butyl phthalate] | dose-dependent decrease of cell viability | ≥ 400 | ≥ 400 | 885 | 539 | ≥ 400 | ≥ 400 | ≥ 400 | ≥ 400 | + | concentration with statistically significant decrease in viability (p<0.05) ([2]; co-culture, FIG. 6): 200 µM |
